Measured values reported in US20040105869A1, “Methods for cultivation of Kabanoanatake secreting and containing active ingredients for prophylactic and therapeutic agents against microbe-related syndromes including HIV” (priority 2002, published 2004).
Converted amounts (≈) assume the structure as drawn.

Columns and labels:
Type in all cases: cell-based
[1] = tested on: H. pylori strain NCTC 11637; assay: Agar plate dilution method, control antibiotic; settings: Helicobacter pylori, NCTC11637, agar plate dilution method
[2] = tested on: H. pylori strain NCTC 11916; assay: Disc diffusion method against H. pylori; settings: Helicobacter pylori, NCTC11916, Disk
Protocol: (§1) Each sample was extracted using DMSO at 10 w/v % to make stock solution, further from which ten-fold serial dilution was made by DMSO, to prepare the test solution. H. pylori. strain NCTC 11637 and strain NCTC 11916 were cultured on blood agar which added 5% defibrinated horse blood to Brucella Agar (BBL) at 37° C. for 3 days, under microaerophile surroundings (N2 80%, CO2 15%, O2 5%). The strains were suspended in Brucella broth added 0.5 mg/ml of BSA fraction V (Sigma A-4503) to a concentration of 10^8 cfu/ml, to prepare inoculum organism liquid, and 0.1 ml of the liquid was smeared on BSA agar added the said BSA, after that anti-bacterial activity against H. pylori was determined by Disc method, as described below. Each test solution of 20 μl was made to absorb in a sensitivity disk (8 mm in diameter, Advantech, thin-model), placed on agar smeared with strains, cultured under microaerophile surroundings at 37° C. for 3 to 5 days. After that, growth-inhibitory zone around the disk showing more than 1 mm was regarded as positive.

[3] = tested on: H. pylori strain NCTC 11637; assay: Disc diffusion method against H. pylori; settings: Helicobacter pylori, NCTC11637, Disk
Protocol: as §1

[4] = tested on: H. pylori strain NCTC 11916; assay: Agar plate dilution method, control antibiotic; settings: Helicobacter pylori, NCTC11916, agar plate dilution method

MIC ([1]; BSA agar): 0.03 µg/mL (≈ 0.0409 µM) | MIC ([1]; blood agar): 0.05 µg/mL (≈ 0.0681 µM) | MIC ([2]; BSA agar): 1.6 µg/mL (≈ 2.18 µM) | MIC ([2]; blood agar): 6.3 µg/mL (≈ 8.58 µM) | MIC ([3]; BSA agar): 3.1 µg/mL (≈ 4.22 µM) | MIC ([3]; blood agar): 6.3 µg/mL (≈ 8.58 µM) | MIC ([4]; BSA agar): 0.03 µg/mL (≈ 0.0409 µM) | MIC ([4]; blood agar): 0.05 µg/mL (≈ 0.0681 µM)
SMILES: CC[C@H]1OC(=O)[C@H](C)[C@@H](O[C@H]2C[C@@](C)(OC)[C@@H](O)[C@H](C)O2)[C@H](C)[C@@H](O[C@@H]2O[C@H](C)C[C@H](N(C)C)[C@H]2O)[C@](C)(O)C[C@@H](C)C(=O)[C@H](C)[C@@H](O)[C@]1(C)O [Erythromycin]
